Results: the NIST ThermoML archive (doi:10.1016/j.jct.2015.08.033)
± gives the expanded uncertainty stated by the source.

Tests used:
[1] = mn = molality of the nth substance listed, in mol/kg; details: 100 kPa, Liquid, m2 = 0; for speed of sound: Frequency=3 MHz, Sing-around technique in a fixed-path interferometer; for mass density: Vibrating tube method
[2] = 100 kPa, Liquid; for speed of sound: Frequency=3 MHz, Sing-around technique in a fixed-path interferometer; for mass density: Vibrating tube method

SMILES	speed of sound ([1]; 298.15 K)	mass density ([1]; 298.15 K)	speed of sound ([1]; 303.15 K)	mass density ([1]; 303.15 K)	speed of sound ([1]; 308.15 K)	mass density ([1]; 308.15 K)	speed of sound ([1]; 313.15 K)	mass density ([1]; 313.15 K)	speed of sound ([1]; 318.15 K)	mass density ([1]; 318.15 K)	speed of sound ([2]; 298.15 K)	mass density ([2]; 298.15 K)	speed of sound ([2]; 303.15 K)	mass density ([2]; 303.15 K)	speed of sound ([2]; 308.15 K)	mass density ([2]; 308.15 K)	speed of sound ([2]; 313.15 K)	mass density ([2]; 313.15 K)	speed of sound ([2]; 318.15 K)	mass density ([2]; 318.15 K)
CN(C)C=O [dimethylformamide] + O=S(=O)([O-])C(F)(F)F.O=S(=O)([O-])C(F)(F)F.[Sr+2]	1457.2 ± 1.3 m/s	943.913 ± 0.51 kg/m3	1438 ± 1.3 m/s	939.144 ± 0.51 kg/m3	1418.6 ± 1.3 m/s	934.36 ± 0.51 kg/m3	1399.3 ± 1.3 m/s	929.56 ± 0.51 kg/m3	1380.1 ± 1.3 m/s	924.748 ± 0.51 kg/m3										
CC(=O)N(C)C [N,N-dimethylethanamide] + O=S(=O)([O-])C(F)(F)F.O=S(=O)([O-])C(F)(F)F.[Ca+2]	1455.7 ± 1.3 m/s	936.279 ± 0.45 kg/m3	1435.9 ± 1.3 m/s	931.67 ± 0.45 kg/m3	1416.1 ± 1.3 m/s	927.058 ± 0.45 kg/m3	1396.5 ± 1.3 m/s	922.429 ± 0.45 kg/m3	1376.9 ± 1.3 m/s	917.793 ± 0.45 kg/m3										
CC(=O)N(C)C [N,N-dimethylethanamide] + O=S(=O)([O-])C(F)(F)F.O=S(=O)([O-])C(F)(F)F.[Mg+2]	1455.9 ± 1.3 m/s	936.279 ± 0.46 kg/m3	1436 ± 1.3 m/s	931.67 ± 0.46 kg/m3	1416.2 ± 1.3 m/s	927.047 ± 0.46 kg/m3	1396.5 ± 1.3 m/s	922.416 ± 0.46 kg/m3	1376.9 ± 1.3 m/s	917.78 ± 0.46 kg/m3										
CC(=O)N(C)C [N,N-dimethylethanamide] + [Ba+2].[O-][Cl+3]([O-])([O-])[O-].[O-][Cl+3]([O-])([O-])[O-]	1455.9 ± 1.3 m/s	936.277 ± 0.54 kg/m3	1436 ± 1.3 m/s	931.67 ± 0.54 kg/m3	1416.2 ± 1.3 m/s	927.058 ± 0.54 kg/m3	1396.5 ± 1.3 m/s	922.423 ± 0.54 kg/m3	1376.9 ± 1.3 m/s	917.79 ± 0.55 kg/m3										
CN(C)C=O [dimethylformamide]											1457.2 ± 1.3 m/s	943.913 ± 0.14 kg/m3	1437.9 ± 1.3 m/s	939.139 ± 0.14 kg/m3	1418.5 ± 1.3 m/s	934.354 ± 0.14 kg/m3	1399.3 ± 1.3 m/s	929.554 ± 0.14 kg/m3	1380 ± 1.3 m/s	924.744 ± 0.14 kg/m3
CC(=O)N(C)C [N,N-dimethylethanamide]											1455.8 ± 1.3 m/s	936.281 ± 0.14 kg/m3	1436 ± 1.3 m/s	931.672 ± 0.14 kg/m3	1416.1 ± 1.3 m/s	927.055 ± 0.14 kg/m3	1396.5 ± 1.3 m/s	922.422 ± 0.14 kg/m3	1376.9 ± 1.3 m/s	917.788 ± 0.14 kg/m3
CN(C)C=O [dimethylformamide] + O=S(=O)([O-])C(F)(F)F.O=S(=O)([O-])C(F)(F)F.[Mg+2]	1457.1 ± 1.3 m/s	943.905 ± 0.43 kg/m3	1437.9 ± 1.3 m/s	939.125 ± 0.43 kg/m3	1418.5 ± 1.3 m/s	934.34 ± 0.43 kg/m3	1399.2 ± 1.3 m/s	929.543 ± 0.43 kg/m3	1380 ± 1.3 m/s	924.732 ± 0.43 kg/m3										
CC(=O)N(C)C [N,N-dimethylethanamide] + O=S(=O)([O-])C(F)(F)F.O=S(=O)([O-])C(F)(F)F.[Sr+2]	1455.9 ± 1.3 m/s	936.29 ± 0.52 kg/m3	1435.9 ± 1.3 m/s	931.679 ± 0.52 kg/m3	1416.1 ± 1.3 m/s	927.058 ± 0.52 kg/m3	1396.5 ± 1.3 m/s	922.423 ± 0.52 kg/m3	1376.9 ± 1.3 m/s	917.79 ± 0.52 kg/m3										
CN(C)C=O [dimethylformamide] + [Ba+2].[O-][Cl+3]([O-])([O-])[O-].[O-][Cl+3]([O-])([O-])[O-]	1457.2 ± 1.3 m/s	943.919 ± 0.54 kg/m3	1437.8 ± 1.3 m/s	939.144 ± 0.54 kg/m3	1418.5 ± 1.3 m/s	934.36 ± 0.55 kg/m3	1399.2 ± 1.3 m/s	929.56 ± 0.55 kg/m3	1380 ± 1.3 m/s	924.748 ± 0.55 kg/m3										
CN(C)C=O [dimethylformamide] + O=S(=O)([O-])C(F)(F)F.O=S(=O)([O-])C(F)(F)F.[Ca+2]	1457.2 ± 1.3 m/s	943.915 ± 0.44 kg/m3	1437.9 ± 1.3 m/s	939.142 ± 0.44 kg/m3	1418.5 ± 1.3 m/s	934.356 ± 0.45 kg/m3	1399.2 ± 1.3 m/s	929.553 ± 0.45 kg/m3	1380 ± 1.3 m/s	924.746 ± 0.45 kg/m3										
